Test system: Lactobacillus acidipiscis NBRC 102164
Assay: Antimicrobial action of licoricidin in liquid seasoning (1), lactic acid bacteria D
Type: cell-based
Design: key: A: The bacterial count decreases to less than 10% of the bacterial count of the control group.; B: The bacterial count decreases to 10% or more and less than 50% of the bacterial count of the control group.; C: The bacterial count decreases to 50% or more and less than 100% of the bacterial count of control group.; D: The bacterial count is the same as the bacterial count of the control group
Description: Commercially available whole soybean soy sauce (produced by Kikkoman Corporation) was electrodialyzed and then concentrated under reduced pressure to obtain soy sauce at a salt concentration of 0% (w/v) and an alcohol concentration of 0% (v/v). Then, salt and/or alcohol was added to the above-mentioned obtained soy sauce, and the mixture was heat-treated to produce soy sauces at salt concentrations and alcohol concentrations shown in the following Table 5. The pHs of the soy sauces were 4.9 to 5.0.
Specifically, components contained in dried bonito was extracted with alcohol and water; sugar, salt, and seasonings were blended with the obtained extract; and the resulting mixture was heated to produce bonito stock. The salt concentration of the obtained bonito stock was 0.2% (w/v), the alcohol concentration was 0.15% (v/v), and the pH was 6.1.
Specifically, Koikuchi soy sauce (produced by Kikkoman Corporation), granulated sugar, potato starch, and water were blended in amounts shown in following Table 7, and the resulting mixture was heated to produce sauce. The salt concentration of the obtained sauce was 5.3% (w/v), the alcohol concentration was 0.8% (v/v), and the pH was 5.0.
Specifically, the components contained in dried bonito was extracted with water; Koikuchi soy sauce (produced by Kikkoman Corporation), sugar, and salt were blended with the obtained extract; and the resulting mixture was heated to produce Japanese seasoned soup stock. The salt concentration of the obtained Japanese seasoned soup stock was 3% (w/v), the alcohol concentration was 0.4% (v/v), and the pH was 5.5.
Licoricidin (produced by ChemFaces) was added to each of the liquid seasonings produced in the above-mentioned (1) to concentrations of 1 ppm, 5 ppm, 10 ppm, 25 ppm, and 50 ppm. Lactic acid bacteria described in the following Table 9 were then added to 10^6 to 10^7 cells/mL and cultured at 30° C. for 7 days. After the culture, the number of lactic acid bacteria was measured using the GAM agar medium “Nissui”. Liquid seasoning to which licoricidin was not added was used as a control group, and the antimicrobial activity was evaluated in comparison with the number of lactic acid bacteria in the control group. The evaluation was performed using the criterion shown below.
• A: The bacterial count decreases to less than 10% of the bacterial count of the control group. • B: The bacterial count decreases to 10% or more and less than 50% of the bacterial count of the control group. • C: The bacterial count decreases to 50% or more and less than 100% of the bacterial count of control group. • D: The bacterial count is the same as the bacterial count of the control group.

Compound: COc1c(CC=C(C)C)c(O)cc2c1C[C@H](c1ccc(O)c(CC=C(C)C)c1O)CO2 [Licoricidin, 4-[(R)-7-hydroxy-5-methoxy-6-(3-methyl-2-butenyl)chroman-3-yl]-2-(3-methyl-2-butenyl)-1,3-benzenediol]
- Antimicrobial activity (Bonito stock (salt 0.2% (w/v), alcohol 0.15% (v/v), pH 6.1), licoricidin 1 ppm): A (The bacterial count decreases to less than 10% of the bacterial count of the control group.)
- Antimicrobial activity (Bonito stock (salt 0.2% (w/v), alcohol 0.15% (v/v), pH 6.1), licoricidin 5 ppm): A (The bacterial count decreases to less than 10% of the bacterial count of the control group.)
- Antimicrobial activity (Bonito stock (salt 0.2% (w/v), alcohol 0.15% (v/v), pH 6.1), licoricidin 10 ppm): A (The bacterial count decreases to less than 10% of the bacterial count of the control group.)
- Antimicrobial activity (Bonito stock (salt 0.2% (w/v), alcohol 0.15% (v/v), pH 6.1), licoricidin 25 ppm): A (The bacterial count decreases to less than 10% of the bacterial count of the control group.)
- Antimicrobial activity (Bonito stock (salt 0.2% (w/v), alcohol 0.15% (v/v), pH 6.1), licoricidin 50 ppm): A (The bacterial count decreases to less than 10% of the bacterial count of the control group.)
- Antimicrobial activity (Japanese seasoned soup stock (salt 3% (w/v), alcohol 0.4% (v/v), pH 5.5), licoricidin 1 ppm): D
- Antimicrobial activity (Japanese seasoned soup stock (salt 3% (w/v), alcohol 0.4% (v/v), pH 5.5), licoricidin 5 ppm): A (The bacterial count decreases to less than 10% of the bacterial count of the control group.)
- Antimicrobial activity (Japanese seasoned soup stock (salt 3% (w/v), alcohol 0.4% (v/v), pH 5.5), licoricidin 10 ppm): A (The bacterial count decreases to less than 10% of the bacterial count of the control group.)
- Antimicrobial activity (Japanese seasoned soup stock (salt 3% (w/v), alcohol 0.4% (v/v), pH 5.5), licoricidin 25 ppm): A (The bacterial count decreases to less than 10% of the bacterial count of the control group.)
- Antimicrobial activity (Japanese seasoned soup stock (salt 3% (w/v), alcohol 0.4% (v/v), pH 5.5), licoricidin 50 ppm): A (The bacterial count decreases to less than 10% of the bacterial count of the control group.)
- Antimicrobial activity (Sauce (salt 5.3% (w/v), alcohol 0.8% (v/v), pH 5.0), licoricidin 1 ppm): C (The bacterial count decreases to 50% or more and less than 100% of the bacterial count of control group.)
- Antimicrobial activity (Sauce (salt 5.3% (w/v), alcohol 0.8% (v/v), pH 5.0), licoricidin 5 ppm): C (The bacterial count decreases to 50% or more and less than 100% of the bacterial count of control group.)
- Antimicrobial activity (Sauce (salt 5.3% (w/v), alcohol 0.8% (v/v), pH 5.0), licoricidin 10 ppm): A (The bacterial count decreases to less than 10% of the bacterial count of the control group.)
- Antimicrobial activity (Sauce (salt 5.3% (w/v), alcohol 0.8% (v/v), pH 5.0), licoricidin 25 ppm): A (The bacterial count decreases to less than 10% of the bacterial count of the control group.)
- Antimicrobial activity (Sauce (salt 5.3% (w/v), alcohol 0.8% (v/v), pH 5.0), licoricidin 50 ppm): A (The bacterial count decreases to less than 10% of the bacterial count of the control group.)
- Antimicrobial activity (Soy sauce, salt 0% (w/v), alcohol 0% (v/v), licoricidin 1 ppm): C (The bacterial count decreases to 50% or more and less than 100% of the bacterial count of control group.)
- Antimicrobial activity (Soy sauce, salt 0% (w/v), alcohol 0% (v/v), licoricidin 5 ppm): C (The bacterial count decreases to 50% or more and less than 100% of the bacterial count of control group.)
- Antimicrobial activity (Soy sauce, salt 0% (w/v), alcohol 0% (v/v), licoricidin 10 ppm): B (The bacterial count decreases to 10% or more and less than 50% of the bacterial count of the control group.)
- Antimicrobial activity (Soy sauce, salt 0% (w/v), alcohol 0% (v/v), licoricidin 25 ppm): A (The bacterial count decreases to less than 10% of the bacterial count of the control group.)
- Antimicrobial activity (Soy sauce, salt 0% (w/v), alcohol 0% (v/v), licoricidin 50 ppm): A (The bacterial count decreases to less than 10% of the bacterial count of the control group.)
- Antimicrobial activity (Soy sauce, salt 4% (w/v), alcohol 0% (v/v), licoricidin 1 ppm): D
- Antimicrobial activity (Soy sauce, salt 4% (w/v), alcohol 0% (v/v), licoricidin 5 ppm): A (The bacterial count decreases to less than 10% of the bacterial count of the control group.)
- Antimicrobial activity (Soy sauce, salt 4% (w/v), alcohol 0% (v/v), licoricidin 10 ppm): A (The bacterial count decreases to less than 10% of the bacterial count of the control group.)
- Antimicrobial activity (Soy sauce, salt 4% (w/v), alcohol 0% (v/v), licoricidin 25 ppm): A (The bacterial count decreases to less than 10% of the bacterial count of the control group.)
- Antimicrobial activity (Soy sauce, salt 4% (w/v), alcohol 0% (v/v), licoricidin 50 ppm): A (The bacterial count decreases to less than 10% of the bacterial count of the control group.)
- Antimicrobial activity (Soy sauce, salt 8% (w/v), alcohol 0% (v/v), licoricidin 1 ppm): C (The bacterial count decreases to 50% or more and less than 100% of the bacterial count of control group.)
- Antimicrobial activity (Soy sauce, salt 8% (w/v), alcohol 0% (v/v), licoricidin 5 ppm): A (The bacterial count decreases to less than 10% of the bacterial count of the control group.)
- Antimicrobial activity (Soy sauce, salt 8% (w/v), alcohol 0% (v/v), licoricidin 10 ppm): A (The bacterial count decreases to less than 10% of the bacterial count of the control group.)
- Antimicrobial activity (Soy sauce, salt 8% (w/v), alcohol 0% (v/v), licoricidin 25 ppm): A (The bacterial count decreases to less than 10% of the bacterial count of the control group.)
- Antimicrobial activity (Soy sauce, salt 8% (w/v), alcohol 0% (v/v), licoricidin 50 ppm): A (The bacterial count decreases to less than 10% of the bacterial count of the control group.)
- Antimicrobial activity (Soy sauce, salt 12% (w/v), alcohol 0% (v/v), licoricidin 1 ppm): D
- Antimicrobial activity (Soy sauce, salt 12% (w/v), alcohol 0% (v/v), licoricidin 5 ppm): A (The bacterial count decreases to less than 10% of the bacterial count of the control group.)
- Antimicrobial activity (Soy sauce, salt 12% (w/v), alcohol 0% (v/v), licoricidin 10 ppm): A (The bacterial count decreases to less than 10% of the bacterial count of the control group.)
- Antimicrobial activity (Soy sauce, salt 12% (w/v), alcohol 0% (v/v), licoricidin 25 ppm): A (The bacterial count decreases to less than 10% of the bacterial count of the control group.)
- Antimicrobial activity (Soy sauce, salt 12% (w/v), alcohol 0% (v/v), licoricidin 50 ppm): A (The bacterial count decreases to less than 10% of the bacterial count of the control group.)

From US20230276831A1, “Food/Beverage Article” (Kikkoman Corporation, priority 2020, published 2023)
